Data: paper PMC5094908 (Journal of applied toxicology : JAT, 2016)
Read-outs that look alike come from different tables or passages of the source.

Assays:
LUHMES and dLUHMES cells [1] = system: LUHMES and dLUHMES cells
NSC and dNSC cells = conditions: 24 h exposure, [ATP], 0.78 to 100 µM
[2] = system: HEK293, SH-SY5Y, SK-N-SH, or N2a; conditions: cited from earlier work
[3] = system: SH-SY5Y and dSH-SY5Y cells; assay: qPCR of apoptosis-pathway genes after 6 h toxicant treatment; type: cell-based, human; conditions: MAP 12.5 µM, MALG 1.56 µM, MHG 1.56 µM, RSR 10 µM; for BIRC5 gene expression / BIRC3 gene expression: SH-SY5Y and dSH-SY5Y (either cell type); for BIRC5 gene expression / BAG3 expression: DTCM 10 µM; for BAG3 expression: both SH-SY5Y and dSH-SY5Y
[4] = system: Caspase 3/7 activity in LUHMES and dLUHMES cells; assay: Caspase-Glo 3/7 luminescence assay, 24 h; type: cell-based, human
LUHMES and dLUHMES cells [5] = conditions: 6 h
[6] = system: Caspase 3/7 activity in SH-SY5Y and dSH-SY5Y cells; assay: Caspase-Glo 3/7 luminescence assay, 24 h; type: cell-based
[7] = system: Caspase 3/7 activity in NSC and dNSC cells; type: cell-based, human; conditions: 24 h, threshold […] above control
[8] = system: SH-SY5Y and dSH-SY5Y cells; conditions: 24 h exposure, [ATP], 0.78 to 100 µM
[9] = 24 h exposure, 0.78 to 100 µM, vs SH-SY5Y/dSH-SY5Y and NSC/dNSC
[10] = dLUHMES, 24 h, threshold […] above control
[11] = 24 h exposure, [ATP], 0.78 to 100 µM

Molecule: Tunicamycin [TUNC]
- cytotoxic sensitivity ([ATP] IC50) of LUHMES and/or dLUHMES relative to the other cell lines (LUHMES and dLUHMES cells [1]; [9]): more sensitive than the other cell lines

Molecule: CCCCCCCCn1sccc1=O [OTZ, 2-octyl-4-isothiazolin-3-one]
- cytotoxic sensitivity ([ATP] IC50) of LUHMES and/or dLUHMES relative to the other cell lines (LUHMES and dLUHMES cells [1]): more sensitive than the other cell lines
- relative cytotoxic sensitivity of NSC versus dNSC (NSC and dNSC cells): NSC more sensitive than dNSC
- In vitro neural selectivity: neural-derived cell lines 10-fold more sensitive (10-fold lower IC50) than the median of the other 9 cell lines [2]: SH-SY5Y ([Huang et al., 2008], [Xia et al., 2008])

Molecule: [CH3][Hg+] [MHG, Methyl mercury (II)]
- BIRC5 gene expression [3]: down-regulation
- BIRC3 gene expression [3]: down-regulation
- BAG3 expression [3]: increased expression

Molecule: O=c1c(-c2ccc(O)cc2)coc2cc(O)cc(O)c12 [GEN, Genistein]
- increase of Caspase 3/7 activity in dLUHMES [4, 10]: but not dLUHMES

Molecule: c1cc(OCC2CO2)cc(OCC2CO2)c1 (stereo not drawn) [RSR, Resorcinol diglycidyl ether]
- cytotoxicity seen in samples treated for qPCR (LUHMES and dLUHMES cells [5]; LUHMES, 1.56 µM RSR, samples lost): excessive cytotoxicity
- cytotoxic sensitivity ([ATP] IC50) of LUHMES and/or dLUHMES relative to the other cell lines (LUHMES and dLUHMES cells [1]; [9]): more sensitive than the other cell lines
- relative cytotoxic sensitivity of NSC versus dNSC (NSC and dNSC cells): the converse was true
- peak Caspase 3/7 activities, ranking among compounds [6]: highest activities
- BIRC5 gene expression [3]: did not respond detectably
- BIRC3 gene expression [3]: did not respond detectably
- BAG3 expression [3]: weakly
- In vitro neural selectivity: neural-derived cell lines 10-fold more sensitive (10-fold lower IC50) than the median of the other 9 cell lines [2]: SH-SY5Y ([Huang et al., 2008], [Xia et al., 2008])

Molecule: NCCc1cc(O)c(O)cc1O [6HD, 6-hydroxydopamine]
- expression of a series of apoptosis-related genes (LUHMES and dLUHMES cells [5]; LUHMES, 6HD 1 µM): not observed
- expression of BCL2A1 and IL10 (LUHMES and dLUHMES cells [5]; dLUHMES, 6HD 1 µM): increased expression
- expression of a series of apoptosis-related genes (LUHMES and dLUHMES cells [5]; dLUHMES, 6HD 1 µM): increased expression
- cytotoxic sensitivity ([ATP] IC50) of LUHMES and/or dLUHMES relative to the other cell lines (LUHMES and dLUHMES cells [1]; [9]): more sensitive than the other cell lines
- relative cytotoxic sensitivity of LUHMES versus dLUHMES cells (LUHMES and dLUHMES cells [1]; [11]): dLUHMES cells were markedly more sensitive than LUHMES cells
- relative cytotoxic sensitivity of NSC versus dNSC (NSC and dNSC cells): NSC more sensitive than dNSC
- peak Caspase 3/7 activities, ranking among compounds [6]: highest activities
- increase of Caspase 3/7 activity in dNSC [7]: but not dNSC

Molecule: Aflatoxin B1
- cytotoxic sensitivity ([ATP] IC50) of LUHMES and/or dLUHMES relative to the other cell lines (LUHMES and dLUHMES cells [1]): more sensitive than the other cell lines
- relative cytotoxic sensitivity of LUHMES versus dLUHMES cells (LUHMES and dLUHMES cells [1]): LUHMES cells were more sensitive than dLUHMES cells
- increase of Caspase 3/7 activity in dLUHMES [4]: but not dLUHMES

Molecule: O=C1C2CC=CCC2C(=O)N1SC(Cl)(Cl)Cl (stereo not drawn) [CAP, Captan]
- cytotoxic sensitivity ([ATP] IC50) of LUHMES and/or dLUHMES relative to the other cell lines (LUHMES and dLUHMES cells [1]; [9]): more sensitive than the other cell lines
- relative cytotoxic sensitivity of LUHMES versus dLUHMES cells (LUHMES and dLUHMES cells [1]; [11]): dLUHMES cells were markedly more sensitive than LUHMES cells
- In vitro neural selectivity: neural-derived cell lines 10-fold more sensitive (10-fold lower IC50) than the median of the other 9 cell lines [2]: SH-SY5Y ([Huang et al., 2008], [Xia et al., 2008])
- cytotoxic sensitivity of dSH-SY5Y cells relative to SH-SY5Y cells [8]: slightly more sensitive

Molecule: Nc1ccn([C@@H]2O[C@H](CO)[C@@H](O)[C@@H]2O)c(=O)n1 [ARAC, Cytosine arabinoside]
- relative cytotoxic sensitivity of LUHMES versus dLUHMES cells (LUHMES and dLUHMES cells [1]): LUHMES cells were more sensitive than dLUHMES cells
- cytotoxic sensitivity ([ATP] IC50) of LUHMES and/or dLUHMES relative to the other cell lines (LUHMES and dLUHMES cells [1]; [9]): more sensitive than the other cell lines
- peak Caspase 3/7 activities, ranking among compounds [6]: highest activities
- increase of Caspase 3/7 activity in dLUHMES [4, 10]: but not dLUHMES

Molecule: COc1cccc2c1C(=O)c1c(O)c3c(c(O)c1C2=O)C[C@@](O)(C(=O)CO)C[C@@H]3O[C@H]1C[C@H](N)[C@H](O)[C@H](C)O1 [DOX, Doxorubicin]
- peak Caspase 3/7 activities, ranking among compounds [6]: highest activities
- In vitro neural selectivity: neural-derived cell lines 10-fold more sensitive (10-fold lower IC50) than the median of the other 9 cell lines [2]: HEK293, SH-SY5Y, SK-N- SH ([Huang et al., 2008], [Xia et al., 2008])

Molecule: COc1cc2c(c(OC)c1OC)-c1ccc(OC)c(=O)cc1[C@@H](NC(C)=O)CC2 [CLCH, Colchicine]
- cytotoxic sensitivity ([ATP] IC50) of LUHMES and/or dLUHMES relative to the other cell lines (LUHMES and dLUHMES cells [1]): more sensitive than the other cell lines
- In vitro neural selectivity: neural-derived cell lines 10-fold more sensitive (10-fold lower IC50) than the median of the other 9 cell lines [2]: HEK293, SH-SY5Y, SK-N- SH, N2a ([Huang et al., 2008], [Xia et al., 2008])
